Assay results as given in US20090263416A1, “REDUCTION OF ANTIBIOTIC RESISTANCE IN BACTERIA” (priority 2006, published 2009).

Assays:
Assay type in all cases: cell-based
[1] = tested on: E. coli XL1-blue; test: Curing / plasmid loss, narrow range plasmid strain; conditions: FIG. 4
Procedure: (§1) Plasmid curing of antibiotic resistant bacteria was measured as described by Lakshmi and Thomas (1989) and NCCLS (2000). Briefly, aliquots (final inoculum concentration approximately 1×10^5 CFU/ml) of Salmonella isolates, E. coli isolates, and commercial isolates of E. coli XL1-blue and E. coli RK2 were added to tubes containing 1 ml aliquots of increasing concentrations of P-YCWP or YCWP (0, 0.01, 0.1, 0.3, 0.5, 1.0, 2.0, 3.0% w/v). A control culture was established by adding bacterial isolates as described above to aliquots of increasing concentrations of mannose. Known curing agents [ethidium bromide and iododeoxyuridine (IDU)] were used as positive controls, and to provide a percent curing activity. Tubes were incubated at 35° C. for 24 hr.
(§2) Following incubation, bacterial aliquots were plated on MacConkey agar plates (master plates). Antibiotic resistance after treatment was evaluated by replica plating on MacConkey agar containing predetermined concentrations of antimicrobial agents. Minimum curing concentration (MCC) was defined as the minimum concentration of compound able to “cure” bacteria, that is, remove antibiotic resistance, within a 24 hr period. […]
(§3) Plasmids were evaluated by microbial lysis and extraction of DNA (Mini-prep System, Bio-Rad Laboratories, Hercules, Calif.), followed by electrophoretic separation on 1% agarose gel (Bio-Rad). […]

[2] = tested on: E. coli ATCC 33766, plasmid pRK248clts; test: Curing, broad range plasmid strain; conditions: tetracycline-resistant determinant; data not shown
Procedure: as §1
(§4) Following incubation, bacterial aliquots were plated on MacConkey agar plates (master plates). Antibiotic resistance after treatment was evaluated by replica plating on MacConkey agar containing predetermined concentrations of antimicrobial agents. Minimum curing concentration (MCC) was defined as the minimum concentration of compound able to “cure” bacteria, that is, remove antibiotic resistance, within a 24 hr period. A sample was considered to contain bacteria resistant to an antibiotic when greater than 1% of a sample plated on a master plate of MacConkey agar grew on an antibiotic-containing replica plate.

[3] = tested on: E. coli of swine origin; test: Curing of antibiotic resistance (replica plating); conditions: for curing for amoxicillin and clavulanic acid / curing for ampicillin / curing for chloramphenicol: isolates treated with EB or IDU
Procedure: as §1, §4

[4] = tested on: S. enteritidis (ATCC 13076); test: Curing / plasmid loss; conditions: streptomycin-resistant; 24 hr exposure, replica plating
Procedure: as §1, §2, §3

[5] = tested on: S. pullorum (1); test: Agglutination; conditions: sugar 100 mM
Procedure: (§5) E. coli and Salmonella isolates were evaluated for ability to agglutinate P-YCWP and YCWP by growing isolates into TIF slants (10 g peptone, 5 g NaCl, 5 g yeast extract and 15 g bacto agar per liter) for 24 hr. Sugar solutions (100 mM) of glucose, mannose, or fructose were prepared in 100 mM phosphate-buffered solution (PBS) at pH 7.2. Yeast cell wall preparations were suspended (1 g YCWP) into 1 liter of PBS. The grown isolates were resuspended in PBS and mixed with 0.1 ml PBS as control or 0.1 ml sugar solution (glucose, mannose, or fructose) to occupy bacterial attachment sites. For adherence tests, 10 μl of P-YCWP or YCWP suspension was placed on a series of microscope slides. The negative control was […] of PBS mixed with YCWP suspension. Bacterial suspension (10 μl) as described above was added, mixed using an orbital shaker, and observed under light microscope (100-1000× magnification). The ability of any of the sugars to inhibit or weaken agglutination was considered evidence that that sugar played a role in agglutination/attachment for that bacteria.

[6] = tested on: Salmonella spp. (13); test: Agglutination; conditions: sugar 100 mM
Procedure: as §5

[7] = tested on: E. coli (30); test: Agglutination; conditions: sugar 100 mM
Procedure: as §5

[8] = tested on: S. Cholerasuis (2); test: Agglutination; conditions: sugar 100 mM
Procedure: as §5

SMILES	curing [1]	curing of the organism carrying the broad range plasmid [2]	curing for neomycin ([3]; EB or IDU treatment)	curing for tetracycline ([3]; EB or IDU treatment)	curing for amoxicillin and clavulanic acid [3]	curing for ampicillin [3]	curing for chloramphenicol [3]	curing [4]	agglutination with YCWP or P-YCWP in presence of sugar [5]	agglutination with YCWP or P-YCWP in presence of sugar [6]	agglutination with YCWP or P-YCWP in presence of sugar [7]	agglutination with YCWP or P-YCWP in presence of sugar [8]
O=c1[nH]c(=O)n([C@H]2C[C@H](O)[C@@H](CO)O2)cc1I [IDU, iododeoxyuridine]	curing was seen	Neither yeast cell wall preparations nor traditional curing agents (EB, IDU) cured the organism	no curing	no curing	100%	5%	100%	Neither EB nor IDU showed any curing capacity	–	–	–	–
O=C(CO)[C@@H](O)[C@H](O)[C@H](O)CO [Fructcose, fructose]	–	–	–	–	–	–	–	–	Negative (−)	Negative (−)	Negative (−)	Negative (−)
CC[n+]1c(-c2ccccc2)c2cc(N)ccc2c2ccc(N)cc21 [EB, ethidium bromide]	–	–	–	–	100%	5%	100%	–	–	–	–	–
